Consider 48 compounds from patent publication US20230079819A1, “COMPOUNDS AND USES THEREOF” (Foghorn Therapeutics Inc., priority 2019, published 2023).

For assay [1], the target named is T1, BRM (Homo sapiens, UniProt P51531).
T1 construct: made in house; host or cells: High Five insect cells
Briefly: ATPase catalytic activity of BRM, ADP-Glo in vitro biochemical assay. The conditions noted are these: ATPase catalytic activity, 30 nM BRM, 400 μM ATP, read-out: BRM IP50 (μM)*. (ADP-Glo first removes unused ATP, then detects ADP through luciferase.)

The target in assay [2] is T2, BRG-1 (Homo sapiens, UniProt P51532).
T2 construct: made in house; host or cells: High Five insect cells
T2 sequence (P51532 whole entry): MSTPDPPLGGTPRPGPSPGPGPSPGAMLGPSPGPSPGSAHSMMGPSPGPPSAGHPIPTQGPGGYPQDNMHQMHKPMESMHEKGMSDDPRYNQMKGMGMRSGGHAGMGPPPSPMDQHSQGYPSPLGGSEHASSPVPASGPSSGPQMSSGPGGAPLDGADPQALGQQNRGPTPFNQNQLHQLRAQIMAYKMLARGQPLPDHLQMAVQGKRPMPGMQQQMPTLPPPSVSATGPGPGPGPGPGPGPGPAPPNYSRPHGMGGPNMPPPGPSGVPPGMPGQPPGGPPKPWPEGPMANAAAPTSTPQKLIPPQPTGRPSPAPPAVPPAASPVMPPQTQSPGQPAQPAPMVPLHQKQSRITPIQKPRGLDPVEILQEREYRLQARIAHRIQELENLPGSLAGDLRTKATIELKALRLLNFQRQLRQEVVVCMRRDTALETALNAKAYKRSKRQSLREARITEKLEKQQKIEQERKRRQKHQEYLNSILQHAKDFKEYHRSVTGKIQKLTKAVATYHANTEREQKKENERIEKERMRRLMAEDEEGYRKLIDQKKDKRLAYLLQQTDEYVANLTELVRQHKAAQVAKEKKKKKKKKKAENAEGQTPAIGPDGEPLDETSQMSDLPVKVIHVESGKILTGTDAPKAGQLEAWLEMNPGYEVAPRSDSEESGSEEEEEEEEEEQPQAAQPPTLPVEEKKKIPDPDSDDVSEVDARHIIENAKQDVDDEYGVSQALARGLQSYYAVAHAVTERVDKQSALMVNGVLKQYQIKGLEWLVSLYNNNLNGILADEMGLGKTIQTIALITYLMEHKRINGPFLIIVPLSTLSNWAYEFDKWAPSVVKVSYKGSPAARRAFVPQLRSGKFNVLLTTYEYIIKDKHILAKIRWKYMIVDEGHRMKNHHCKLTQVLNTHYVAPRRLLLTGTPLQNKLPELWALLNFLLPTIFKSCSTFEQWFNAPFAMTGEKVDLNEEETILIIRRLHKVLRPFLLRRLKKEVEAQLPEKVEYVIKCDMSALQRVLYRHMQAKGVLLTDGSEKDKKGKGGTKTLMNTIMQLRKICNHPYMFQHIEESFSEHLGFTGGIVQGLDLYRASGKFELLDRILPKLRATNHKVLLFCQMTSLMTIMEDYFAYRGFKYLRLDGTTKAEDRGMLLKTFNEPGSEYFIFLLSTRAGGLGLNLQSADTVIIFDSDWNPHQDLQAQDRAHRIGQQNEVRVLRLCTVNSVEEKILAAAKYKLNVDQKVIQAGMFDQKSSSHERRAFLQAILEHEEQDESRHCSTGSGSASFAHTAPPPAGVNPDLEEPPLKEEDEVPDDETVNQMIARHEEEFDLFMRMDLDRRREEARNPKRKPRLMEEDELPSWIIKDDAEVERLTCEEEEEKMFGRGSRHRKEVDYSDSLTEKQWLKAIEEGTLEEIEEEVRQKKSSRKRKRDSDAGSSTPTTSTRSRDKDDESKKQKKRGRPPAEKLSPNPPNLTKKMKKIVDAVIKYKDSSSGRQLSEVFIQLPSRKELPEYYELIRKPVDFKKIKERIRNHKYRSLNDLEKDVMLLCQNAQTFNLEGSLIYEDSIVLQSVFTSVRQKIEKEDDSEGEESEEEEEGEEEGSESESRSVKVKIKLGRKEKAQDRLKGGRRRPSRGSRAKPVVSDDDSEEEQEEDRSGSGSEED
Briefly: ATPase catalytic activity of BRG-1, ADP-Glo in vitro biochemical assay. As to conditions: ATPase catalytic activity, 30 nM BRG-1, 400 μM ATP, read-out: BRG1 IP50 (μM)*.

T1 sequence (P51531 whole entry): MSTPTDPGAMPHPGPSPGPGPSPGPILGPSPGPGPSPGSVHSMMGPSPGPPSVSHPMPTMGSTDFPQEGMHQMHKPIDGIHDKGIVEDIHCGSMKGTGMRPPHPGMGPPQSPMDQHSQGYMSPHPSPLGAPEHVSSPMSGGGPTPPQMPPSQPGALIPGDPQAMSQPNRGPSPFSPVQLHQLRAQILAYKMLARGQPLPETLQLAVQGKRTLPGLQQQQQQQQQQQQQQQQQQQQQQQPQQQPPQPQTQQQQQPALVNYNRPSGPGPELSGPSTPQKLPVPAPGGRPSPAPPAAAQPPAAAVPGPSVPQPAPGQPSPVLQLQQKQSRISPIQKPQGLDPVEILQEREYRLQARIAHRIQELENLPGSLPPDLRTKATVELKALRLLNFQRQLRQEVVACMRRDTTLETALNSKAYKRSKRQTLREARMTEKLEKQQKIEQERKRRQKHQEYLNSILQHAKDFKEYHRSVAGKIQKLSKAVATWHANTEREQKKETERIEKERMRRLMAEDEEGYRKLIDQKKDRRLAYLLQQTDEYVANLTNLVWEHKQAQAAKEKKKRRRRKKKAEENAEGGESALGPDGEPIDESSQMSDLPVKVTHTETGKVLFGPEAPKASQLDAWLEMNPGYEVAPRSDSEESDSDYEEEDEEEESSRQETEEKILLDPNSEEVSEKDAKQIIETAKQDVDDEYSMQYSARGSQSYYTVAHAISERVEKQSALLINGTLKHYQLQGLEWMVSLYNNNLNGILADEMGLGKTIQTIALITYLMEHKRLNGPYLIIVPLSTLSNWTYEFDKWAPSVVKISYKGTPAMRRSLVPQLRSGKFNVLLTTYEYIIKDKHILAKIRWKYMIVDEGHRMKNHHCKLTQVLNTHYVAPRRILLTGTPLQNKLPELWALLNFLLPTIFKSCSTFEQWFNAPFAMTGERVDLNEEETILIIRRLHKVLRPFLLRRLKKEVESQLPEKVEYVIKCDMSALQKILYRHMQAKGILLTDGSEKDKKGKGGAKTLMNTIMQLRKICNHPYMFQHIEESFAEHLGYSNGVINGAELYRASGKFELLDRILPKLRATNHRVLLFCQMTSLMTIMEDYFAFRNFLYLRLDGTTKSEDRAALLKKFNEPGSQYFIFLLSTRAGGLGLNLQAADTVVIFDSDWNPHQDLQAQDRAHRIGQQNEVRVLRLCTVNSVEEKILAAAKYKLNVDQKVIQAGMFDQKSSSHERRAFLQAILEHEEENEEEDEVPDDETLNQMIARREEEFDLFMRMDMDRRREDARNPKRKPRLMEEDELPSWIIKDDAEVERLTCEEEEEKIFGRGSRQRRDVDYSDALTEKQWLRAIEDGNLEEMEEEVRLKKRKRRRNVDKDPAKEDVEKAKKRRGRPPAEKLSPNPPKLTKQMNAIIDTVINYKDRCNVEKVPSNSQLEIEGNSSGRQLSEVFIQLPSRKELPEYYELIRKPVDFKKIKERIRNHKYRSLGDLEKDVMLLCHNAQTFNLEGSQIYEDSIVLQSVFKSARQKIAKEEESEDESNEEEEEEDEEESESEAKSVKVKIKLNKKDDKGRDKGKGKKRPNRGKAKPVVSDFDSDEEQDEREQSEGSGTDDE

As to `CS(=O)(=O)n1ccc(C(=O)NCC(=O)Nc2nc(-c3cc(Cl)cc(OC4CC4)c3)cs2)c1` [Compound 260], the IC50 in assay [1] and in assay [2] was greater than 0.01 µM throughout.
With `Cn1ncc(-c2cccc(-c3csc(NC(=O)CNC(=O)c4ccn(S(C)(=O)=O)c4)n3)c2)n1` [Compound 261], the IC50 in assay [1] and in assay [2] was less than 0.01 µM each time.
`COc1ccncc1-c1cccc(-c2csc(NC(=O)CNC(=O)c3ccn(C4(C)COC4)c3)n2)n1` [Compound 262, N-[2-[[4-[6-(4-methoxy-3-pyridyl)-2-pyridyl]thiazol-2-yl]amino]-2-oxo-ethyl]-1-(3-methyloxetan-3-yl)pyrrole-3-carboxamide]: the IC50 in assay [1] and in assay [2] was greater than 0.01 µM throughout.
Take `CN1CCc2ccc(-c3csc(NC(=O)CNC(=O)c4ccn(C(C)(C)C)c4)n3)cc21` [Compound 263]: the IC50 in assay [1] and in assay [2] was greater than 0.01 µM each time.
For `CS(=O)(=O)n1ccc(C(=O)NCC(=O)Nc2nc(-c3ccc4c(c3F)OCC4)cs2)c1` [Compound 264], the IC50 in assay [1] and in assay [2] was greater than 0.01 µM in each case.
`CS(=O)(=O)n1ccc(C(=O)NCC(=O)Nc2nc(-c3cccc(OC4CC4)c3)cs2)c1` [Compound 265]: the IC50 in assay [1] and in assay [2] was greater than 0.01 µM throughout.
`CS(=O)(=O)n1ccc(C(=O)NCC(=O)Nc2nc(-c3cccc(OCF)c3)cs2)c1` [Compound 266]: the IC50 in assay [1] and in assay [2] was greater than 0.01 µM in each case.
On to `C[C@@H]1CN(c2cc(-c3csc(NC(=O)CNC(=O)c4ccn(S(C)(=O)=O)c4)n3)cc(C3CC3)c2)C[C@H](C)O1` [Compound 267], for which the IC50 in assay [1] and in assay [2] was greater than 0.1 µM in each case.
For `C[C@@H]1CN(c2cccc(-c3csc(NC(=O)CNC(=O)c4ccn(C5(C)COC5)c4)n3)c2F)C[C@H](C)O1` [Compound 268], the IC50 in assay [1] is greater than 0.01 µM; in assay [2], greater than 0.1 µM.
Turning to `C[C@@H]1CN(c2cccc(-c3csc(NC(=O)CNC(=O)c4ccn(C(C)(C)C)c4)n3)c2F)C[C@H](C)O1` [Compound 269], the IC50 in assay [1] and in assay [2] was greater than 0.01 µM each time.
For `CN1CCc2ccc(-c3csc(NC(=O)CNC(=O)c4ccn(S(C)(=O)=O)c4)n3)cc21` [Compound 270], the IC50 in assay [1] and in assay [2] was greater than 0.01 µM throughout.
For `CC1(n2ccc(C(=O)NCC(=O)Nc3nc(-c4ccc5c(c4)OCC5)cs3)c2)COC1` [Compound 271], the values for the IC50 in assay [1] and in assay [2] were greater than 0.01 µM and greater than 0.1 µM, respectively.
For `CNc1cccc(-c2csc(NC(=O)CNC(=O)c3ccn(C(C)(C)C)c3)n2)c1` [Compound 272] the same measures were greater than 0.01 µM and greater than 0.1 µM.
On to `CN1CCCCc2ccc(-c3csc(NC(=O)CNC(=O)c4ccn(S(C)(=O)=O)c4)n3)cc21` [Compound 273], for which the IC50 is greater than 0.01 µM in assay [1] and greater than 0.1 µM in assay [2].
For `CS(=O)(=O)n1ccc(C(=O)NCC(=O)Nc2nc(-c3cccc(OC4CCCOC4)c3)cs2)c1` (stereo not drawn) [Compound 274], the IC50 in assay [1] and in assay [2] was greater than 0.01 µM throughout.
With `CS(=O)(=O)n1ccc(C(=O)NCC(=O)Nc2nc(-c3cccc(-c4cn(C(F)F)nn4)c3)cs2)c1` [Compound 275], the IC50 in assay [1] and in assay [2] was greater than 0.01 µM each time.
For `CS(=O)(=O)n1ccc(C(=O)NCC(=O)Nc2nc(-c3cccc(OC(F)(F)F)c3)cs2)c1` [Compound 276], the IC50 in assay [1] and in assay [2] was greater than 0.01 µM in each case.
For the compound `CS(=O)(=O)n1ccc(C(=O)NCC(=O)Nc2nc(-c3cccc(-c4cnn(C5CC5)n4)c3)cs2)c1` [Compound 277], the IC50 in assay [1] is less than 0.01 µM; in assay [2] it was greater than 0.01 µM.
Turning to `CS(=O)(=O)n1ccc(C(=O)NCC(=O)Nc2nc(-c3cccc(-c4cnnn4C(F)F)c3)cs2)c1` [Compound 278], the IC50 in assay [1] and in assay [2] was greater than 0.01 µM each time.
Turning to `CS(=O)(=O)n1ccc(C(=O)NCC(=O)Nc2nc(-c3cccc(OC4CCOCC4)c3)cs2)c1` [Compound 279], the IC50 in assay [1] and in assay [2] was greater than 0.01 µM each time.
For the compound `CNc1cccc(-c2csc(NC(=O)CNC(=O)c3ccn(S(C)(=O)=O)c3)n2)c1` [Compound 280], the IC50 in assay [1] and in assay [2] was greater than 0.01 µM in each case.
Turning to `CC(C)Oc1cccc(-c2csc(NC(=O)CNC(=O)c3ccn(S(C)(=O)=O)c3)n2)c1` [Compound 281], the IC50 in assay [1] and in assay [2] was greater than 0.01 µM in each case.
In the case of `CN1CCOc2ccc(-c3csc(NC(=O)CNC(=O)c4ccn(S(C)(=O)=O)c4)n3)cc21` [Compound 282], the IC50 in assay [1] and in assay [2] was less than 0.01 µM each time.
As for `CN1CCOc2ccc(-c3csc(NC(=O)CNC(=O)c4ccn(C(C)(C)C)c4)n3)cc21` [Compound 283], the IC50 in assay [1] and in assay [2] was greater than 0.01 µM throughout.
`CS(=O)(=O)n1ccc(C(=O)NCC(=O)Nc2nc(-c3cccc(OC4CCC4)c3)cs2)c1` [Compound 284]: the IC50 in assay [1] and in assay [2] was greater than 0.01 µM in each case.
Regarding `CS(=O)(=O)n1ccc(C(=O)NCC(=O)Nc2nc(-c3cccc(OC(F)F)c3)cs2)c1` [Compound 285], the IC50 in assay [1] and in assay [2] was greater than 0.01 µM each time.
Consider `CCOc1cccc(-c2csc(NC(=O)CNC(=O)c3ccn(S(C)(=O)=O)c3)n2)c1` [Compound 286], for which the IC50 in assay [1] and in assay [2] was greater than 0.01 µM each time.
On to `CN(C)c1cccc(-c2csc(NC(=O)CNC(=O)c3ccn(S(C)(=O)=O)c3)n2)c1` [Compound 287], for which the IC50 in assay [1] was less than 0.01 µM; in assay [2], greater than 0.01 µM.
`CN(C)c1cccc(-c2csc(NC(=O)CNC(=O)c3ccn(C(C)(C)C)c3)n2)c1` [Compound 288]: the IC50 in assay [1] and in assay [2] was greater than 0.01 µM in each case.
As to `CS(=O)(=O)n1ccc(C(=O)NCC(=O)Nc2nc(-c3cccc(-c4cnn(C(F)F)n4)c3)cs2)c1` [Compound 289], the IC50 in assay [1] and in assay [2] was greater than 0.01 µM each time.
Take `CS(=O)(=O)n1ccc(C(=O)NCC(=O)Nc2nc(-c3cccc(N4CC[C@@H](N)[C@H](F)C4)c3)cs2)c1` [Compound 290]: the values for the IC50 in assay [1] and in assay [2] were less than 0.01 µM and greater than 0.01 µM, respectively.
For `C[C@@H]1C[C@@H](COc2cccc(-c3csc(NC(=O)CNC(=O)c4ccn(S(C)(=O)=O)c4)n3)c2)C[C@H](C)O1` [Compound 291] the same measures were greater than 0.01 µM and greater than 0.01 µM.
For `C[C@@H]1C[C@H](COc2cccc(-c3csc(NC(=O)CNC(=O)c4ccn(S(C)(=O)=O)c4)n3)c2)C[C@H](C)O1` [Compound 292] the same measures were greater than 0.1 µM and greater than 0.1 µM.
For `C[C@@H]1CN(c2cc(-c3csc(NC(=O)CNC(=O)c4ccn(S(C)(=O)=O)c4)n3)ccc2F)C[C@H](C)O1` [Compound 293] the same measures were less than 0.01 µM and less than 0.01 µM.
Turning to `C[C@@H]1CN(c2cccc(-c3csc(NC(=O)CNC(=O)c4ccn(S(C)(=O)=O)c4)n3)c2F)C[C@H](C)O1` [Compound 294], the IC50 in assay [1] and in assay [2] was greater than 0.01 µM in each case.
Consider `C[C@@H]1CN(c2cc(F)cc(-c3csc(NC(=O)CNC(=O)c4ccn(S(C)(=O)=O)c4)n3)c2)C[C@H](C)O1` [Compound 295], for which the IC50 in assay [1] and in assay [2] was less than 0.01 µM each time.
In the case of `Cc1cc(-c2cccc(-c3csc(NC(=O)CNC(=O)c4ccn(S(C)(=O)=O)c4)n3)c2)on1` [Compound 296], the IC50 in assay [1] and in assay [2] was greater than 0.01 µM each time.
Take `C[C@@H]1CN(c2ccc(F)c(-c3csc(NC(=O)CNC(=O)c4ccn(S(C)(=O)=O)c4)n3)c2)C[C@H](C)O1` [Compound 297]: the IC50 is greater than 0.01 µM in assay [1] and greater than 0.1 µM in assay [2].
For `CS(=O)(=O)n1ccc(C(=O)NCC(=O)Nc2nc(-c3cccc(C4CCC4)c3)cs2)c1` [Compound 298] the same measures were greater than 0.01 µM and greater than 0.01 µM.
In the case of `C[C@@H]1CN(c2cc(-c3csc(NC(=O)CNC(=O)c4ccn(C(C)(C)C)c4)n3)ccn2)C[C@H](C)O1` [Compound 299], the IC50 in assay [1] is less than 0.01 µM; in assay [2], greater than 0.01 µM.
For `CS(=O)(=O)n1ccc(C(=O)NCC(=O)Nc2nc(-c3cccc(OC[C@H]4CCOC4)c3)cs2)c1` [Compound 303, 1-methylsulfonyl-N-[2-oxo-2-[[4-[3-[[(3S)-tetrahydrofuran-3-yl]methoxy]phenyl]thiazol-2-yl]amino]ethyl]pyrrole-3-carboxamide] the same measures were less than 0.01 µM and greater than 0.01 µM.
For `CS(=O)(=O)n1ccc(C(=O)NCC(=O)Nc2nc(-c3cccc(OC[C@@H]4CCOC4)c3)cs2)c1` [Compound 304, 1-methylsulfonyl-N-[2-oxo-2-[[4-[3-[[(3R)-tetrahydrofuran-3-yl]methoxy]phenyl]thiazol-2-yl]amino]ethyl]pyrrole-3-carboxamide] the same measures were greater than 0.01 µM and greater than 0.01 µM.
For `CN1CCCc2ccc(-c3csc(NC(=O)CNC(=O)c4ccn(C(C)(C)C)c4)n3)cc21` [Compound 305] the same measures were greater than 0.01 µM and greater than 0.01 µM.
With `CN1CCCc2ccc(-c3csc(NC(=O)CNC(=O)c4ccn(S(C)(=O)=O)c4)n3)cc21` [Compound 306], the IC50 in assay [1] and in assay [2] was greater than 0.01 µM throughout.
Turning to `CS(=O)(=O)n1ccc(C(=O)NCC(=O)Nc2nc(-c3cccc(OCC4CCC4)c3)cs2)c1` [Compound 307], the IC50 in assay [1] and in assay [2] was greater than 0.01 µM throughout.
With `CC(C)(C)n1ccc(C(=O)NCC(=O)Nc2nc(-c3ccc4c(c3)OCC4)cs2)c1` [Compound 308], the IC50 in assay [1] and in assay [2] was greater than 0.01 µM throughout.
In the case of `CS(=O)(=O)n1ccc(C(=O)NCC(=O)Nc2nc(-c3ccc4c(c3)OCC4)cs2)c1` [Compound 309], the IC50 in assay [1] and in assay [2] was greater than 0.01 µM in each case.
Consider `CO[C@H]1CCCN(c2cccc(-c3csc(NC(=O)CNC(=O)c4ccn(C(C)(C)C)c4)n3)n2)C1` [Compound 311], for which the IC50 in assay [1] and in assay [2] was greater than 0.01 µM each time.
